Common to all, as to assay type: biochemical
One test concerns the target GSK-3β (AA 1-420) (Homo sapiens, UniProt P49841). The test can be described thus: Inhibition of GSK-3, coupled enzyme system. As to conditions: 20 μM ATP, 30° C. How it is done: Compounds are screened for their ability to inhibit GSK-3β (AA 1-420) activity using a standard coupled enzyme system [Fox et al. Protein Sci. 1998, 7, 2249]. Reactions are carried out in a solution containing 100 mM HEPES (pH 7.5), 10 mM MgCl2, 25 mM NaCl, 300 μM NADH, 1 mM DTT and 1.5% DMSO. Final substrate concentrations in the assay are 20 μM ATP (Sigma Chemicals, St Louis, Mo.) and 300 μM peptide (American Peptide, Sunnyvale, Calif.). Reactions are carried out at 30° C. and 20 nM GSK-3β. Final concentrations of the components of the coupled enzyme system are 2.5 mM phosphoenolpyruvate, 300 μM NADH, 30 μg/ml pyruvate kinase and 10 μg/ml lactate dehydrogenase.
An assay stock buffer solution is prepared containing all of the reagents listed above with the exception of ATP and the test compound of interest. The assay stock buffer solution (175 μl) is incubated in a 96 well plate with 5 μl of the test compound of interest at final concentrations spanning 0.002 μM to 30 μM at 30° C. for 10 min. Typically, a 12 point titration is conducted by preparing serial dilutions (from 10 mM compound stocks) with DMSO of the test compounds in daughter plates. The reaction is initiated by the addition of 20 μl of ATP (final concentration 20 μM). Rates of reaction are obtained using a Molecular Devices Spectramax plate reader (Sunnyvale, Calif.) over 10 min at 30° C. The Ki values are determined from the rate data as a function of inhibitor concentration.

A further test concerns the target T1, CDK-2/Cyclin A (Homo sapiens, UniProt P24941).
T1 construct: 25 nM CDK-2/Cyclin A
The test can be described thus: Inhibition of CDK-2, coupled enzyme assay. As to conditions: 100 μM ATP, 30° C. How it is done:
Compounds are screened for their ability to inhibit CDK-2/Cyclin A using a standard coupled enzyme assay [Fox et al. Protein Sci. 1998, 7, 2249]. Reactions were carried out in 100 mM HEPES (pH 7.5), 10 mM MgCl2, 25 mM NaCl, 1 mM DTT and 1.5% DMSO. Final substrate concentrations in the assay are 100 μM ATP (Sigma chemicals) and 100 μM peptide (American Peptide, Sunnyvale, Calif.). Assays are carried out at 30° C. and 25 nM CDK-2/Cyclin A. Final concentrations of the components of the coupled enzyme system are 2.5 mM phosphoenolpyruvate, 350 μM NADH, 30 μg/ml pyruvate kinase and 10 μg/ml lactate dehydrogenase.
An assay stock buffer solution is prepared containing all of the reagents listed above, with the exception of CDK-2/Cyclin A, DTT and the test compound of interest. 56 μl of the test reaction is placed in a 384 well plate followed by addition of 1 μl of 2 mM DMSO stock containing the test compound (final compound concentration 30 μM). The plate is preincubated for ˜10 minutes at 30° C. and the reaction initiated by addition of 10 μl of enzyme (final concentration 25 nM). Rates of reaction are obtained using a BioRad Ultramark plate reader (Hercules, Calif.) over a 5 minute read time at 30° C. Ki values are determined according to standard methods.

In another test the target is T2, JAK-3 (Homo sapiens, UniProt P52333).
T2 sequence (P52333 1-1124): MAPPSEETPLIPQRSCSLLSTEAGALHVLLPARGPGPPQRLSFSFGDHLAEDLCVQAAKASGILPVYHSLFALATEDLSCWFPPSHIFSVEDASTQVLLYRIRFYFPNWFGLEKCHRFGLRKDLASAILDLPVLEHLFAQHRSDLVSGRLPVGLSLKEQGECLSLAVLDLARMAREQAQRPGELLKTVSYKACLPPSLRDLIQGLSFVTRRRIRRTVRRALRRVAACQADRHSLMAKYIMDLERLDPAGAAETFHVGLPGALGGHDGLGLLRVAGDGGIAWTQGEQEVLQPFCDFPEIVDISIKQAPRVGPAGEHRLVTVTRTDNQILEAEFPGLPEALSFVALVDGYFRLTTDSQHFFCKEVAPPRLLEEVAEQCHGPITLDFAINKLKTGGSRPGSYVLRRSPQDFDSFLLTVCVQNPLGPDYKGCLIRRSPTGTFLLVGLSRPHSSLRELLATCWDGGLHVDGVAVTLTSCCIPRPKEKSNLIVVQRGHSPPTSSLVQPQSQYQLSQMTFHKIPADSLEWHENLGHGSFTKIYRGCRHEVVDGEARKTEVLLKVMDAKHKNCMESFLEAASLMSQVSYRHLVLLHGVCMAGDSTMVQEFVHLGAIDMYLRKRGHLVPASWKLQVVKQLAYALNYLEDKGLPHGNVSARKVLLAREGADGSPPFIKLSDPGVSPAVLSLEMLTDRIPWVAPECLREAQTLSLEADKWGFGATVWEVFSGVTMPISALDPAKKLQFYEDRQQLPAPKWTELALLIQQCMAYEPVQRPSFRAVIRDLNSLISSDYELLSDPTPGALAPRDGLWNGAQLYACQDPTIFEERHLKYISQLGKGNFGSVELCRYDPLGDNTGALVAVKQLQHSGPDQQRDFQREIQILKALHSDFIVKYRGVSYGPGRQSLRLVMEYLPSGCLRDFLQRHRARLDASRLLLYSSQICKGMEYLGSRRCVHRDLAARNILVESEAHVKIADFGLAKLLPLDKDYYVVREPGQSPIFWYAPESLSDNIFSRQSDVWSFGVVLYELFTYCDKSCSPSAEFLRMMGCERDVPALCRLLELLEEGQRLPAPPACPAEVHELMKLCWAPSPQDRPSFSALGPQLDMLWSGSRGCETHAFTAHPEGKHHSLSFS
Description: JAK3 inhibition assay (ELISA, Poly (Glu, Ala, Tyr) coated plates). The settings on record: 2 μM ATP. How it is done: Compound inhibition of JAK was assayed by the method described by G. R. Brown, et al, Bioorg. Med. Chem. Lett. 2000, vol. 10, pp 575-579 in the following manner. Into Maxisorb plates, previously coated at 4° C. with Poly (Glu, Ala, Tyr) 6:3:1 then washed with phosphate buffered saline 0.05% and Tween-(PBST), was added 2 μM ATP, 5 mM MgCl2, and a solution of compound in DMSO. The reaction was started with JAK enzyme and the plates incubated for 60 minutes at 30° C. The plates were then washed with PBST, 100 μL HRP-Conjugated 4G10 antibody was added, and the plate incubated for 90 minutes at 30° C. The plate was again washed with PBST, 100 μL TMB solution is added, and the plates were incubated for another 30 minutes at 30° C. Sulfuric acid (100 μL of 1M) was added to stop the reaction and the plate is read at 450 nm to obtain the optical densities for analysis to determine Ki values.

Molecules are shown by their SMILES.

One may read the Ki as the dissociation constant of the complex between target and ligand, obtained from inhibition or displacement. Read a low Ki as tighter binding.

Sequence of GSK-3β (AA 1-420) (P49841 whole entry, the tested form may be a part): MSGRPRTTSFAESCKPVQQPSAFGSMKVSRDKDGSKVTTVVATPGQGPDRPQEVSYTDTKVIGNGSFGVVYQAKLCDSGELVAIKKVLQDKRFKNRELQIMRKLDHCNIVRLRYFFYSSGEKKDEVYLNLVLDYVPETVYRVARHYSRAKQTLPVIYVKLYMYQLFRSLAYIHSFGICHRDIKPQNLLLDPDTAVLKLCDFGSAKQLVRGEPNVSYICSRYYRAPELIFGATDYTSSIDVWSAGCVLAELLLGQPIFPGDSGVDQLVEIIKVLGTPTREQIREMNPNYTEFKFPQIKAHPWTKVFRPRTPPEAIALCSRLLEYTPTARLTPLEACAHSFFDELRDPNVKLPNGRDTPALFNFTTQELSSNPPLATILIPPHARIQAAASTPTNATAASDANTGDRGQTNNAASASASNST

As for `CN(Cc1ccccc1)c1cc(-n2cnc(Nc3ccccc3)n2)ccn1` [Compound I-55], the figures for the Ki at GSK-3β (AA 1-420), on CDK-2/Cyclin A and on JAK-3 were greater than 1000 nM, less than 500 nM and 10 to 1000 nM, respectively.

On to `O=C(Cc1ccccc1)Nc1cc(-n2cnc(Nc3ccccc3)n2)ccn1` [Compound I-96], for which the results for the Ki on GSK-3β (AA 1-420), on CDK-2/Cyclin A and at JAK-3 were less than 500 nM, less than 500 nM and greater than 1000 nM, respectively.

In the case of `COc1cc(Nc2ncn(-c3ccccc3)n2)cc(OC)c1OC` [Compound I-42], the inhibition constant Ki on GSK-3β (AA 1-420) was greater than 1000 nM; at CDK-2/Cyclin A, greater than 1000 nM; at JAK-3, 10 to 1000 nM.

For `CC(=O)N1[C@H](C)CN(c2cc(-n3cnc(Nc4ccc(N5CCOCC5)cc4)n3)ccn2)C[C@@H]1C` [Compound I-85, 1-(2,6-Dimethyl-4-{4-[3-(4-morpholin-4-yl-phenylamino)-[1,2,4]triazol-1-yl]-pyridin-2-yl}-piperazin-1-yl)-ethanone], the Ki at GSK-3β (AA 1-420) is greater than 1000 nM; on CDK-2/Cyclin A, less than 500 nM; at JAK-3 it was 10 to 1000 nM.

Consider `CN(Cc1cccnc1)c1cc(-n2cnc(Nc3ccccc3)n2)ccn1` [Compound I-57], for which the inhibitory constant (Ki) is less than 500 nM at GSK-3β (AA 1-420), less than 500 nM on CDK-2/Cyclin A and 10 to 1000 nM on JAK-3.

With `CC(C)Oc1cccc(Nc2ncn(-c3ccccc3)n2)c1` [Compound I-46], the Ki on GSK-3β (AA 1-420), on CDK-2/Cyclin A and at JAK-3 was greater than 1000 nM each time.

In the case of `CC(C)(C)CC(=O)Nc1cc(-n2cnc(Nc3ccccc3)n2)ccn1` [Compound I-102], the inhibition constant Ki on GSK-3β (AA 1-420), on CDK-2/Cyclin A and on JAK-3 was greater than 1000 nM throughout.

Take `CCOC(=O)c1ccc(Nc2ncn(-c3ccnc(N4CCCN(C(C)=O)CC4)c3)n2)cc1` [Compound I-76]: the inhibition constant Ki was greater than 1000 nM at GSK-3β (AA 1-420), greater than 1000 nM at CDK-2/Cyclin A and 10 to 1000 nM on JAK-3.

For `CCN(CCO)c1cc(-n2cnc(Nc3ccccc3)n2)ccn1` [Compound I-54], the inhibition constant (Ki) on GSK-3β (AA 1-420) was less than 500 nM; on CDK-2/Cyclin A, less than 500 nM; at JAK-3, 10 to 1000 nM.

Take `c1ccc(-n2cnc(Nc3ccc4c(c3)OCCO4)n2)cc1` [Compound I-44]: the Ki at GSK-3β (AA 1-420), at CDK-2/Cyclin A and on JAK-3 was greater than 1000 nM throughout.

Turning to `CCN(CC)CCNc1cc(-n2cnc(Nc3ccccc3)n2)ccn1` [Compound I-60], the Ki on GSK-3β (AA 1-420), on CDK-2/Cyclin A and on JAK-3 was greater than 1000 nM throughout.

As to `CCNC(=O)Nc1ccc(Nc2ncn(-c3ccnc(N4C[C@@H](C)N(C(C)=O)[C@@H](C)C4)c3)n2)cc1` [Compound I-98, 1-(4-{1-[2-(4-Acetyl-3,5-dimethyl-piperazin-1-yl)-pyridin-4-yl]-1H-[1,2,4]triazol-3-ylamino}-phenyl)-3-ethyl-urea], the inhibitory constant (Ki) on GSK-3β (AA 1-420) was greater than 1000 nM; on CDK-2/Cyclin A it was less than 500 nM; on JAK-3, less than 10 nM.

Consider `COCC(=O)N1CCCN(c2cc(-n3cnc(Nc4ccccc4)n3)ccn2)CC1` [Compound I-71], for which the Ki at GSK-3β (AA 1-420) is greater than 1000 nM; on CDK-2/Cyclin A, greater than 1000 nM; on JAK-3, 10 to 1000 nM.

Turning to `CC(=O)N1[C@H](C)CN(c2cc(-n3cnc(Nc4ccc(NC(=O)OC(C)C)cc4)n3)ccn2)C[C@@H]1C` [Compound I-89], the inhibitory constant (Ki) at GSK-3β (AA 1-420) was greater than 1000 nM; on CDK-2/Cyclin A, 500 to 1000 nM; at JAK-3, 10 to 1000 nM.

As to `c1ccc(Nc2ncn(-c3ccnc(N4CCCCC4)c3)n2)cc1` [Compound I-49, phenyl-[1-(3,4,5,6-tetrahydro-2H-[1,2′]bipyridinyl-4′-yl)-1H-[1,2,4]triazol-3-yl]-amine], the inhibition constant Ki on GSK-3β (AA 1-420) is 500 to 1000 nM; on CDK-2/Cyclin A it was less than 500 nM; at JAK-3, 10 to 1000 nM.

Turning to `c1ccc(Nc2ncn(-c3ccnc(N4CCCCCCC4)c3)n2)cc1` [Compound I-52], the Ki at GSK-3β (AA 1-420) is 500 to 1000 nM; at CDK-2/Cyclin A it was less than 500 nM; at JAK-3, 10 to 1000 nM.

`CN1CCN(c2ccc(Nc3ncn(-c4ccccc4)n3)cn2)CC1` [Compound I-135]: the inhibition constant (Ki) on GSK-3β (AA 1-420), on CDK-2/Cyclin A and at JAK-3 was greater than 1000 nM throughout.

For the compound `CC1CCCN1c1cc(-n2cnc(Nc3ccccc3)n2)ccn1` (stereo not drawn) [Compound I-56], the Ki was less than 500 nM on GSK-3β (AA 1-420), less than 500 nM on CDK-2/Cyclin A and 10 to 1000 nM on JAK-3.

Turning to `CC(C)CC(=O)N1CCCN(c2cc(-n3cnc(Nc4ccccc4)n3)ccn2)CC1` [Compound I-70], the inhibition constant (Ki) on GSK-3β (AA 1-420), at CDK-2/Cyclin A and on JAK-3 was greater than 1000 nM each time.

`CN1C(C)(C)CC(Nc2cc(-n3cnc(Nc4ccccc4)n3)ccn2)CC1(C)C` [Compound I-61]: the Ki is greater than 1000 nM at GSK-3β (AA 1-420), 500 to 1000 nM on CDK-2/Cyclin A and greater than 1000 nM at JAK-3.

On to `O=C(C1CCCO1)N1CCN(c2cc(-n3cnc(Nc4ccccc4)n3)ccn2)CC1` (stereo not drawn) [Compound I-64], for which the inhibition constant (Ki) on GSK-3β (AA 1-420), on CDK-2/Cyclin A and at JAK-3 was greater than 1000 nM each time.

As for `CCCN(CCO)c1cc(-n2cnc(Nc3ccccc3)n2)ccn1` [Compound I-58], the inhibition constant (Ki) at GSK-3β (AA 1-420) is less than 500 nM; at CDK-2/Cyclin A, less than 500 nM; at JAK-3, 10 to 1000 nM.

For the compound `COCCN(C)c1cc(-n2cnc(Nc3ccccc3)n2)ccn1` [Compound I-59, (2-methoxy-ethyl)-methyl-[4-(3-phenylamino-[1,2,4]triazol-1-yl)-pyridin-2-yl]-amine], the Ki is less than 500 nM at GSK-3β (AA 1-420), less than 500 nM on CDK-2/Cyclin A and 10 to 1000 nM on JAK-3.

As for `CCCNC(=O)Nc1ccc(Nc2ncn(-c3ccnc(N4C[C@@H](C)N(C(C)=O)[C@@H](C)C4)c3)n2)cc1` [Compound I-99], the Ki at GSK-3β (AA 1-420) was greater than 1000 nM; on CDK-2/Cyclin A it was less than 500 nM; on JAK-3, 10 to 1000 nM.
